Test [1] addresses PCSK9 (Homo sapiens, UniProt Q8NBP7). Description: PCSK9/EGF(A) TR-FRET binding assay. A general note: In TR-FRET formats the signal depends on donor and acceptor labels being close together.
Description: The former was based on a TF-FRET assay to measure the association of the EGF(A) domain of the LDLR to PCSK9 (“PCSK9/EGF(A) binding assay”) whilst the latter was based on a TR-FRET assay to measure binding of Ab20 to PCSK9Δhelix (“PCSK9Δhelix/Ab20 binding assay”).
The ability of compounds to inhibit binding to PCSK9 was evaluated with a panel of time-resolved fluorescence resonance energy transfer (TR-FRET) binding assays. […] The PCSK9Δhelix/Ab20 binding assay evaluated the ability of compounds to compete with Ab20 for binding to the N-terminal groove region in a His-tagged, PCSK9Δhelix construct. […] Signal generation in the PCSK9 binding assays was dependent upon the binding interaction to bring into close proximity the His-tag on the PCSK9 and the Fc-tag on the ligand. Anti-His-APC was bound to the His-tag, and anti-Fc-europium was bound to the Fc-tag. When these two antibodies were in close proximity and were irradiated with light at 340 nm, the europium was excited and emitted energy at 615 nm. This energy was taken up by the APC and was emitted as light at 665 nm. Compounds that competed with the ligand reduced the energy transfer and thus the emission at 665 nm. In the His-EGFA-Fc molecule in the counterscreen, the two tags were always in close proximity, thus any reduction in emission at 665 nm was due to interference with the detection system.
Compounds were solubilized and dilutions were prepared in DMSO. […] The plate was centrifuged to mix the well contents and allowed to incubate for 30 min. […] The TR-FRET signal was read on a ViewLux reader (PerkinElmer) with excitation at 340 nm and emission at 615 and 665 nm with a 50-μs time delay between excitation and measurement of emission. The TR-FRET ratio was calculated as the fluorescence emission at 665 nm divided by the fluorescence emission at 615 nm. The normalized TR-FRET ratios were plotted as a function of the compound concentrations, and the IC50 values were determined using a 4-parameter logistic regression.
In black 1536-well assay plates (MaKO, Aurora® Microplates, Whitefish, Mont.), 40 nL of peptide in DMSO were preincubated with 2 μL His-tagged PCSK9 plus anti-His-allophycocyanin in assay buffer (50 mM Tris-HCl, pH 7.5, 150 mM NaCl, 2 mM CaCl2, 0.01% Tween®-20, 0.1% bovine gamma globulins, and protease inhibitor cocktail) for 30 min. Then 2 μL of Fc-tagged ligand and anti-Fc-europium in assay buffer were added and allowed to incubate for 2 h.
Test [2] has as its target T1, PCSK9Δhelix (Homo sapiens, UniProt Q8NBP7).
T1 construct: Human PCSK9 construct M1-Q692 with an engineered TEV site (residue deletion Y166, R167); made in house; host or cells: CHO
Description: PCSK9Δhelix/Ab20 TR-FRET binding assay. The conditions noted are these: Table 8E, additional compounds.

The mark [3] stands for this setting: TR-FRET, Table 8E, additional compounds, read-out: PCSK9/EGF(A) IC50.
[4] abbreviates: TR-FRET, read-out: PCSK9Δhelix/Ab20 IC50.

Where two headings read alike, the source gives them in different places. Square brackets hold non-standard residues; d marks the D form. Peptide text beside a SMILES is read from it. * marks the point of attachment. Propanoyl(3-(4-MeO-Ph)) = COc1ccc(CCC(=O)*)cc1; Butanoyl(4-(4-HOPh)) = O=C(CCCc1ccc(O)cc1)*; Propanoyl(3-(3-pyridyl)) = O=C(CCc1cccnc1)*; Dihydrocaffeoyl = O=C(CCc1ccc(O)c(O)c1)*; Desaminotyrosyl = O=C(CCc1ccc(O)cc1)*; Butanoyl(4-OPh) = O=C(CCCOc1ccccc1)*; hArg = N=C(N)NCCCC[C@H](N)C(=O)O; X3 = O=C(CC1CCN(Cc2ccccn2)CC1)*; X28 = COc1cc(OCCCC(=O)*)ccc1CO; X39 = O=C(C1CCC(c2ccccc2)CC1)*; X8 = O=C(c1ccc(N2CCOCC2)nc1)*; X11 = O=C(CCCOc1ccc(Br)cc1)*; X42 = O=C(c1ccc2cc[nH]c2c1)*; X25 = COc1cc(CCC(=O)*)ccc1O; X7 = CCc1ccc(OCCCC(=O)*)cc1; X29 = Nc1ccc(CCC(=O)*)cc1; X26 = O=C1CCCN1CCC(=O)*; X27 = O=C(CCCN1CCOCC1)*; Pentanoyl = CCCCC(=O)*; X23 = NC(=O)NCCC(=O)*

T1 sequence (Q8NBP7 with tags, fused parts or gaps limits assumed): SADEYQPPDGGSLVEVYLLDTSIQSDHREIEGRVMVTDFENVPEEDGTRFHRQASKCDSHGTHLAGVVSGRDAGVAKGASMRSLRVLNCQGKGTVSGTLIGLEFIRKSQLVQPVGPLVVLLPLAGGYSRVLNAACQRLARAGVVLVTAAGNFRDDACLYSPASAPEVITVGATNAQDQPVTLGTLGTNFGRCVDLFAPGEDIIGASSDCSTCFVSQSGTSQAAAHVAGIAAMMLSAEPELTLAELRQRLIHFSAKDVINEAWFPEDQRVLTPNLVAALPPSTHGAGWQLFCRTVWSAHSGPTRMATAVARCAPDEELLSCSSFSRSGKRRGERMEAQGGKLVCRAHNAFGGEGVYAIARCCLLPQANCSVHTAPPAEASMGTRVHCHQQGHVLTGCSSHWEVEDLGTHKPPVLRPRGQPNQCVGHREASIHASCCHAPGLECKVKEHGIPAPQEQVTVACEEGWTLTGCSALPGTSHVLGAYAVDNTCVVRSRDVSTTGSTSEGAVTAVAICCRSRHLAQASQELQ
T1 sequence (Q8NBP7 31-152 partner limits assumed): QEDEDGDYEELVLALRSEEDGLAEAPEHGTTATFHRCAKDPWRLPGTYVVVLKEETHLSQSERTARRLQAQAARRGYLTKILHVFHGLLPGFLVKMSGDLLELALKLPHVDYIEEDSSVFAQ
PCSK9, sequence (Q8NBP7 153-692): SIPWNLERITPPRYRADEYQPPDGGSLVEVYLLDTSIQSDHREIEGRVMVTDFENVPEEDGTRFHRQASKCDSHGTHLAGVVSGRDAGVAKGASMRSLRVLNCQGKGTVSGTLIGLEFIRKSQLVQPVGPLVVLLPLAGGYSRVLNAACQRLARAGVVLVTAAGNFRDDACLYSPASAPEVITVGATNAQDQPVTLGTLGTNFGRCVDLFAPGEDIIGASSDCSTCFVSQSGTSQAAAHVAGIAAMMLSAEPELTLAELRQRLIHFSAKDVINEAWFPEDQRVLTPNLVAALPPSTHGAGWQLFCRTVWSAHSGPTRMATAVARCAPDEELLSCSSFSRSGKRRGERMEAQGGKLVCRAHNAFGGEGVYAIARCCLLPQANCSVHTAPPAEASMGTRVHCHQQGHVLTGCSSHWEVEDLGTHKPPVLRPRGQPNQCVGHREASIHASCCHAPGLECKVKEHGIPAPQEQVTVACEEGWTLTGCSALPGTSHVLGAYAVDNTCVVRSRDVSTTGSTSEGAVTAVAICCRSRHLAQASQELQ
PCSK9, sequence (Q8NBP7 31-152 partner limits assumed): as the sequence (Q8NBP7 31-152 partner limits assumed) above

Turning to `CC[C@H](C)[C@H](NC(=O)[C@H](CCCCNC(=N)N)NC(=O)[C@@H](NC(=O)[C@H](CC(C)C)NC(=O)[C@H](CC(N)=O)NC(=O)[C@H](Cc1c[nH]c2ccccc12)NC(=O)CCCOc1ccc(CO)c(OC)c1)C(C)C)C(=O)NCC(=O)N[C@@H](CC(C)C)C(=O)N[C@@H](CC(C)C)C(=O)N[C@@H](CCCNC(=N)N)C(N)=O` [Compound 204] (X28-WNLV[hArg]IGLLR-NH2), the IC50 was 3.6 µM in test [1] (setting [3]) and 0.87 µM in test [2] (setting [4]).
On the same counts, the results for `CC[C@H](C)[C@H](NC(=O)[C@H](CCCNC(=N)N)NC(=O)[C@@H](NC(=O)[C@H](CC(C)C)NC(=O)[C@H](CC(N)=O)NC(=O)[C@H](Cc1c[nH]c2ccccc12)NC(=O)c1ccc(N2CCOCC2)nc1)C(C)C)C(=O)NCC(=O)N[C@@H](CC(C)C)C(=O)N[C@H](C(=O)N[C@@H](CCCNC(=N)N)C(N)=O)[C@@H](C)O` [Compound 172] (X8-WNLVRIGLTR-NH2) are ≥ 50 µM and 8.5 µM.
On the same counts, the results for `CC[C@H](C)[C@H](NC(=O)[C@H](CCCNC(=N)N)NC(=O)[C@@H](NC(=O)[C@H](CC(C)C)NC(=O)[C@H](CC(N)=O)NC(=O)[C@H](Cc1c[nH]c2ccccc12)NC(=O)C1CCC(c2ccccc2)CC1)C(C)C)C(=O)NCC(=O)N[C@@H](CC(C)C)C(=O)N[C@@H](CC(C)C)C(=O)N[C@@H](CCCNC(=N)N)C(N)=O` (stereo partly shown) [Compound 147] (X39-WNLVRIGLLR-NH2) are 2.6 µM and 0.41 µM.
Taken in the same sequence, the figures for `CC[C@H](C)[C@H](NC(=O)[C@H](CCCNC(=N)N)NC(=O)[C@@H](NC(=O)[C@H](CC(C)C)NC(=O)[C@H](CC(N)=O)NC(=O)[C@H](Cc1c[nH]c2ccccc12)NC(=O)CCc1ccc(O)cc1)C(C)C)C(=O)NCC(=O)N[C@@H](CC(C)C)C(=O)N[C@H](C(=O)N[C@@H](CCCNC(=N)N)C(N)=O)[C@@H](C)O` [Compound 170] (Desaminotyrosyl-WNLVRIGLTR-NH2) were ≥ 50 µM and 3.1 µM.
In the case of `CC[C@H](C)[C@H](NC(=O)[C@H](CCCCNC(=N)N)NC(=O)[C@@H](NC(=O)[C@H](CC(C)C)NC(=O)[C@H](CC(N)=O)NC(=O)[C@H](Cc1c[nH]c2ccccc12)NC(=O)c1ccc2cc[nH]c2c1)C(C)C)C(=O)NCC(=O)N[C@@H](CC(C)C)C(=O)N[C@@H](CC(C)C)C(=O)N[C@@H](CCCNC(=N)N)C(N)=O` [Compound 222] (X42-WNLV[hArg]IGLLR-NH2), the IC50 is 21 µM in test [1] (setting [3]) and 1.4 µM in test [2] (setting [4]).
For `CC[C@H](C)[C@H](NC(=O)[C@H](CCCCNC(=N)N)NC(=O)[C@@H](NC(=O)[C@H](CC(C)C)NC(=O)[C@H](CC(N)=O)NC(=O)[C@H](Cc1c[nH]c2ccccc12)NC(=O)CCc1ccc(O)c(OC)c1)C(C)C)C(=O)NCC(=O)N[C@@H](CCC(N)=O)C(=O)N[C@@H](CCCNC(=N)N)C(N)=O` [Compound 239] (X25-WNLV[hArg]IGQR-NH2), the IC50 in test [1] amounted to 32 µM; in test [2] (PCSK9Δhelix/Ab20 IC50, TR-FRET) it was 1.2 µM.
Consider `CC[C@H](C)[C@H](NC(=O)[C@H](CCCCNC(=N)N)NC(=O)[C@@H](NC(=O)[C@H](CC(C)C)NC(=O)[C@H](CC(N)=O)NC(=O)[C@H](Cc1c[nH]c2ccccc12)NC(=O)CCCN1CCOCC1)C(C)C)C(=O)NCC(=O)N[C@@H](CC(C)C)C(=O)N[C@@H](CC(C)C)C(=O)N[C@@H](CCCNC(=N)N)C(N)=O` [Compound 193] (X27-WNLV[hArg]IGLLR-NH2), for which the IC50 is ≥ 50 µM in test [1] (setting [3]) and 1.5 µM in test [2] (setting [4]).
On the same counts, the results for `CC[C@H](C)[C@H](NC(=O)[C@H](CCCCNC(=N)N)NC(=O)[C@@H](NC(=O)[C@H](CC(C)C)NC(=O)[C@H](CC(N)=O)NC(=O)[C@H](Cc1c[nH]c2ccccc12)NC(=O)CCCc1ccc(O)cc1)C(C)C)C(=O)NCC(=O)N[C@@H](CC(C)C)C(=O)N[C@@H](CC(C)C)C(=O)N[C@@H](CCCNC(=N)N)C(N)=O` [Compound 220] ({Butanoyl(4-(4-HOPh))}-WNLV[hArg]IGLLR-NH2) are 37 µM and 0.91 µM.
Taken in the same sequence, the figures for `CC[C@H](C)[C@H](NC(=O)[C@H](CCCNC(=N)N)NC(=O)[C@@H](NC(=O)[C@H](CC(C)C)NC(=O)[C@H](CC(N)=O)NC(=O)[C@H](Cc1c[nH]c2ccccc12)NC(=O)CCN1CCCC1=O)C(C)C)C(=O)NCC(=O)N[C@@H](CC(C)C)C(=O)N[C@@H](CC(C)C)C(=O)N[C@@H](CCCNC(=N)N)C(N)=O` [Compound 128] (X26-WNLVRIGLLR-NH2) were ≥ 50 µM and 7.5 µM.
On the same counts, the results for `CC[C@H](C)[C@H](NC(=O)[C@H](CCCNC(=N)N)NC(=O)[C@@H](NC(=O)[C@H](CC(C)C)NC(=O)[C@H](CC(N)=O)NC(=O)[C@H](Cc1c[nH]c2ccccc12)NC(=O)CCc1cccnc1)C(C)C)C(=O)NCC(=O)N[C@@H](CC(C)C)C(=O)N[C@@H](CC(C)C)C(=O)N[C@@H](CCCNC(=N)N)C(N)=O` [Compound 138] ({Propanoyl(3-(3-pyridyl))}-WNLVRIGLLR-NH2) are 48 µM and 4.9 µM.
Turning to `CC[C@H](C)[C@H](NC(=O)[C@H](CCCNC(=N)N)NC(=O)[C@@H](NC(=O)[C@H](CC(C)C)NC(=O)[C@H](CC(N)=O)NC(=O)[C@H](Cc1c[nH]c2ccccc12)NC(=O)CCNC(N)=O)C(C)C)C(=O)NCC(=O)N[C@@H](CC(C)C)C(=O)N[C@@H](CC(C)C)C(=O)N[C@@H](CCCNC(=N)N)C(N)=O` [Compound 141] (X23-WNLVRIGLLR-NH2), the results for the IC50 in test [1] (setting [3]) and in test [2] (setting [4]) were ≥ 50 µM and 36 µM, respectively.
With `CC[C@H](C)[C@H](NC(=O)[C@H](CCCCNC(=N)N)NC(=O)[C@@H](NC(=O)[C@H](CC(C)C)NC(=O)[C@H](CC(N)=O)NC(=O)[C@H](Cc1c[nH]c2ccccc12)NC(=O)CCCOc1ccccc1)C(C)C)C(=O)NCC(=O)N[C@@H](CC(C)C)C(=O)N[C@@H](CC(C)C)C(=O)N[C@@H](CCCNC(=N)N)C(N)=O` [Compound 209] ({Butanoyl(4-OPh)}-WNLV[hArg]IGLLR-NH2), the IC50 was 2.9 µM in test [1] (setting [3]) and 0.45 µM in test [2] (setting [4]).
Taken in the same sequence, the figures for `CC[C@H](C)[C@H](NC(=O)[C@H](CCCCNC(=N)N)NC(=O)[C@@H](NC(=O)[C@H](CC(C)C)NC(=O)[C@H](CC(N)=O)NC(=O)[C@H](Cc1c[nH]c2ccccc12)NC(=O)CCc1ccc(N)cc1)C(C)C)C(=O)NCC(=O)N[C@@H](CC(C)C)C(=O)N[C@@H](CC(C)C)C(=O)N[C@@H](CCCNC(=N)N)C(N)=O` [Compound 218] (X29-WNLV[hArg]IGLLR-NH2) were 5 µM and 0.26 µM.
On the same counts, the results for `CC[C@H](C)[C@H](NC(=O)[C@H](CCCCNC(=N)N)NC(=O)[C@@H](NC(=O)[C@H](CC(C)C)NC(=O)[C@H](CC(N)=O)NC(=O)[C@H](Cc1c[nH]c2ccccc12)NC(=O)CCc1ccc(O)c(O)c1)C(C)C)C(=O)NCC(=O)N[C@@H](CC(C)C)C(=O)N[C@@H](CC(C)C)C(=O)N[C@@H](CCCNC(=N)N)C(N)=O` [Compound 224] (Dihydrocaffeoyl-WNLV[hArg]IGLLR-NH2) are 7 µM and 0.53 µM.
Taken in the same sequence, the figures for `CC[C@H](C)[C@H](NC(=O)[C@H](CCCNC(=N)N)NC(=O)[C@@H](NC(=O)[C@H](CC(C)C)NC(=O)[C@H](CC(N)=O)NC(=O)[C@H](Cc1c[nH]c2ccccc12)NC(=O)CC1CCN(Cc2ccccn2)CC1)C(C)C)C(=O)NCC(=O)N[C@@H](CC(C)C)C(=O)N[C@@H](CC(C)C)C(=O)N[C@@H](CCCNC(=N)N)C(N)=O` [Compound 130] (X3-WNLVRIGLLR-NH2) were ≥ 50 µM and 8.6 µM.
Regarding `CC[C@H](C)[C@H](NC(=O)[C@H](CCCCNC(=N)N)NC(=O)[C@@H](NC(=O)[C@H](CC(C)C)NC(=O)[C@H](CC(N)=O)NC(=O)[C@H](Cc1c[nH]c2ccccc12)NC(=O)CCCOc1ccc(Br)cc1)C(C)C)C(=O)NCC(=O)N[C@@H](CC(C)C)C(=O)N[C@@H](CC(C)C)C(=O)N[C@@H](CCCNC(=N)N)C(N)=O` [Compound 206] (X11-WNLV[hArg]IGLLR-NH2), the IC50 in test [1] (setting [3]) turned out to be 1.8 µM; in test [2] (setting [4]), 0.87 µM.
Take `CCc1ccc(OCCCC(=O)N[C@@H](Cc2c[nH]c3ccccc23)C(=O)N[C@@H](CC(N)=O)C(=O)N[C@@H](CC(C)C)C(=O)N[C@H](C(=O)N[C@@H](CCCCNC(=N)N)C(=O)N[C@H](C(=O)NCC(=O)N[C@@H](CC(C)C)C(=O)N[C@@H](CC(C)C)C(=O)N[C@@H](CCCNC(=N)N)C(N)=O)[C@@H](C)CC)C(C)C)cc1` [Compound 210] (X7-WNLV[hArg]IGLLR-NH2): the IC50 stood at 3 µM in test [1] (setting [3]) and 0.84 µM in test [2] (setting [4]).
Taken in the same sequence, the figures for `CC[C@H](C)[C@H](NC(=O)[C@H](CCCNC(=N)N)NC(=O)[C@@H](NC(=O)[C@H](CC(C)C)NC(=O)[C@H](CC(N)=O)NC(=O)[C@H](Cc1c[nH]c2ccccc12)NC(=O)c1ccc(N2CCOCC2)nc1)C(C)C)C(=O)NCC(=O)N[C@@H](CC(C)C)C(=O)N[C@@H](CC(C)C)C(=O)N[C@@H](CCCNC(=N)N)C(N)=O` [Compound 134] (X8-WNLVRIGLLR-NH2) were ≥ 50 µM and 4.2 µM.
Taken in the same sequence, the figures for `CC[C@H](C)[C@H](NC(=O)[C@H](CCCNC(=N)N)NC(=O)[C@@H](NC(=O)[C@H](CC(C)C)NC(=O)[C@H](CC(N)=O)NC(=O)[C@H](Cc1c[nH]c2ccccc12)NC(=O)CCc1ccc(OC)cc1)C(C)C)C(=O)NCC(=O)N[C@@H](CC(C)C)C(=O)N[C@H](C(=O)N[C@@H](CCCNC(=N)N)C(N)=O)[C@@H](C)O` [Compound 166] ({Propanoyl(3-(4-MeO-Ph))}-WNLVRIGLTR-NH2) were ≥ 50 µM and 5.9 µM.
For `CCCCC(=O)N[C@@H](Cc1c[nH]c2ccccc12)C(=O)N[C@@H](CC(N)=O)C(=O)N[C@@H](CC(C)C)C(=O)N[C@H](C(=O)N[C@@H](CCCNC(=N)N)C(=O)N[C@H](C(=O)NCC(=O)N[C@@H](CC(C)C)C(=O)N[C@@H](CO)C(=O)N[C@@H](CCCNC(=N)N)C(N)=O)[C@@H](C)CC)C(C)C` [Compound 181] (Pentanoyl-WNLVRIGLSR-NH2), the results for the IC50 in test [1] (setting [3]) and in test [2] (setting [4]) were ≥ 50 µM and 8.9 µM, respectively.

For the origin of these results see patent US11034725B2, “Compositions and methods for treating cardiovascular disease” (Genentech, Inc., priority 2016, dated 2021).
